Assays:
[1] = system: human LINE-1; test: Human LINE-1 (L1) retrotransposition dual-luciferase reporter assay in HeLa cells; format: cell-based; conditions: Homo sapiens, HeLa, 72 h, read-out: Human LINE-1 IC50 (Human L1 activity inhibition)
Outline: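 Compound dilution series (final DMSO 0.2%) added right after transfecting HeLa cells with the pYX017 L1 dual-luciferase reporter; 72 h culture at 37 °C, 5% CO2, triplicates. IC50 fitted by non-linear logistic regression to firefly-to-Renilla luminescence ratio (×10,000).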

[2] = system: cancer cell lines; test: Cancer cell proliferation activity of representative nucleosides, CellTiterGlo 72 h (Example 7, Tables 8 and 9); format: cell-based; conditions: 72 h
Outline: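 Percent viability was set against 0.1% DMSO (100%) and 10 μM staurosporine (0%), with signal from CellTiterGlo luminescence. Dose-response treatment began one day after seeding and lasted 72 h at 37° C under 5% or 10% CO2, with 0.1% final DMSO.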

IC50 [1]: 833 nM
IC50 ([2]; 72 h, 5637, bladder): 0.37 µM
IC50 ([2]; CLS439, bladder): > 50 µM
IC50 ([2]; HS729, muscle): > 50 µM
IC50 ([2]; J82, bladder): > 50 µM
IC50 ([2]; JAR, placenta): > 50 µM
IC50 ([2]; MT3, breast): > 50 µM
IC50 ([2]; PC3, prostate): > 50 µM
IC50 ([2]; RD, muscle): > 50 µM
IC50 ([2]; T24, bladder): > 50 µM
IC50 ([2]; Homo sapiens, 22Rv1, 72 h, 22RV1, prostate): 3.69 µM
IC50 ([2]; Homo sapiens, 786-0, 72 h, 786O, kidney): > 50 µM
IC50 ([2]; Homo sapiens, A204, 72 h, A204, muscle): > 50 µM
IC50 ([2]; Homo sapiens, A549, 72 h, A549, lung): > 50 µM
IC50 ([2]; Homo sapiens, A673, 72 h, A673, bone): > 50 µM
IC50 ([2]; Homo sapiens, A2780, 72 h, A2780, ovary): > 50 µM
IC50 ([2]; Homo sapiens, A-375, 72 h, A375, skin): > 50 µM
IC50 ([2]; Homo sapiens, A-431, 72 h, A431, skin): 1.42 µM
IC50 ([2]; Homo sapiens, ACHN, kidney): 0.94 µM
IC50 ([2]; Homo sapiens, ASPC1, 72 h, ASPC1, pancreas): 0.49 µM
IC50 ([2]; Homo sapiens, BT-20, 72 h, BT20, breast): > 50 µM
IC50 ([2]; Homo sapiens, BXPC-3, 72 h, BXPC3, pancreas): 0.59 µM
IC50 ([2]; Homo sapiens, C-33-A, C33A, endometrial): 3.07 µM
IC50 ([2]; Homo sapiens, CAKI-1, 72 h, CAKI1, kidney): > 50 µM
IC50 ([2]; Homo sapiens, COLO 205, 72 h, COLO205, colon): 0.87 µM
IC50 ([2]; Homo sapiens, COLO-678, 72 h, COLO678, colon): > 50 µM
IC50 ([2]; Homo sapiens, Ca-Ski, CASKI, endometrial): > 50 µM
IC50 ([2]; Homo sapiens, Caco-2, 72 h, CACO2, colon): > 50 µM
IC50 ([2]; Homo sapiens, Calu-6, 72 h, CALU6, lung): > 50 µM
IC50 ([2]; Homo sapiens, DLD-1, 72 h, DLD1, colon): > 50 µM
IC50 ([2]; Homo sapiens, DU-145, 72 h, DU145, prostate): > 50 µM
IC50 ([2]; Homo sapiens, EFO-21, 72 h, EFO21, ovary): > 50 µM
IC50 ([2]; Homo sapiens, EJ-28, 72 h, EJ28, bladder): > 50 µM
IC50 ([2]; Homo sapiens, Granta-519, 72 h, GRANTA-519, hematological): 0.35 µM
IC50 ([2]; Homo sapiens, HCT-15, 72 h, HCT15, colon): > 50 µM
IC50 ([2]; Homo sapiens, HCT-116, 72 h, HCT116, colon): > 50 µM
IC50 ([2]; Homo sapiens, HEK293, 72 h, HEK293, kidney): > 50 µM
IC50 ([2]; Homo sapiens, HL-60, 72 h, HL-60, hematological): > 50 µM
IC50 ([2]; Homo sapiens, HT-29, 72 h, HT29, colon): > 50 µM
IC50 ([2]; Homo sapiens, HT-1080, 72 h, HT1080, connective tissue): > 50 µM
IC50 ([2]; Homo sapiens, HeLa, endometrial): > 50 µM
IC50 ([2]; Homo sapiens, HepG2, 72 h, HEPG2, liver): > 50 µM
IC50 ([2]; Homo sapiens, Hs-578T, HS578T, breast): > 50 µM
IC50 ([2]; Homo sapiens, IGROV-1, 72 h, IGROV1, ovary): > 50 µM
IC50 ([2]; Homo sapiens, IMR-90, 72 h, IMR90, lung): > 50 µM
IC50 ([2]; Homo sapiens, JEG-3, 72 h, JEG3, placenta): > 50 µM
IC50 ([2]; Homo sapiens, JIMT-1, 72 h, JIMT1, breast): > 50 µM
IC50 ([2]; Homo sapiens, K562, 72 h, K-562, hematological): > 50 µM
IC50 ([2]; Homo sapiens, Kasumi 1, 72 h, KASUMI-1, hematological): > 50 µM
IC50 ([2]; Homo sapiens, L-363, 72 h, L-363, hematological): > 50 µM
IC50 ([2]; Homo sapiens, LoVo, colon): 2.06 µM
IC50 ([2]; Homo sapiens, MCF7, 72 h, MCF7, breast): > 50 µM
IC50 ([2]; Homo sapiens, MDA-MB-231, 72 h, MDAMB231, breast): > 50 µM
IC50 ([2]; Homo sapiens, MDA-MB-435, 72 h, MDAMB435, skin): > 50 µM
IC50 ([2]; Homo sapiens, MDA-MB-436, 72 h, MDAMB436, breast): > 50 µM
IC50 ([2]; Homo sapiens, MDA-MB-468, 72 h, MDAMB468, breast): > 50 µM
IC50 ([2]; Homo sapiens, MG-63, 72 h, MG63, bone): > 50 µM
IC50 ([2]; Homo sapiens, MHH-ES-1, 72 h, MHHES1, bone): > 50 µM
IC50 ([2]; Homo sapiens, MIA PaCa-2, 72 h, MIAPACA2, pancreas): > 50 µM
IC50 ([2]; Homo sapiens, MINO, hematological): 0.06 µM
IC50 ([2]; Homo sapiens, MV4-11, 72 h, MV4-11, hematological): 1.72 µM
IC50 ([2]; Homo sapiens, NCI-H23, 72 h, NCI-H23, lung): > 50 µM
IC50 ([2]; Homo sapiens, NCI-H82, 72 h, NCIH82, lung): > 50 µM
IC50 ([2]; Homo sapiens, NCI-H292, 72 h, NCIH292, lung): > 50 µM
IC50 ([2]; Homo sapiens, NCI-H460, 72 h, NCIH460, ung): > 50 µM
IC50 ([2]; Homo sapiens, OVCAR-3, 72 h, OVCAR3, ovary): > 50 µM
IC50 ([2]; Homo sapiens, OVCAR-4, 72 h, OVCAR4, ovary): > 50 µM
IC50 ([2]; Homo sapiens, PANC-1, 72 h, PANC1, pancreas): > 50 µM
IC50 ([2]; Homo sapiens, PLC-PRF-5, 72 h, PLCPRF5, liver): > 50 µM
IC50 ([2]; Homo sapiens, Panc1005, 72 h, PANC1005, pancreas): > 50 µM
IC50 ([2]; Homo sapiens, Ramos, hematological): 1.18 µM
IC50 ([2]; Homo sapiens, SAOS-2, 72 h, SAOS2, bone): > 50 µM
IC50 ([2]; Homo sapiens, SF-268, 72 h, SF268, brain): > 50 µM
IC50 ([2]; Homo sapiens, SF-295, 72 h, SF295, brain): > 50 µM
IC50 ([2]; Homo sapiens, SK-BR-3, 72 h, SKBR3, breast): 0.37 µM
IC50 ([2]; Homo sapiens, SK-HEP1, 72 h, SKHEP1, liver): > 50 µM
IC50 ([2]; Homo sapiens, SK-LMS-1, 72 h, SKLMS1, uterus): > 50 µM
IC50 ([2]; Homo sapiens, SK-MEL-5, 72 h, SKMEL5, skin): > 50 µM
IC50 ([2]; Homo sapiens, SK-MEL-28, 72 h, SKMEL28, skin): > 50 µM
IC50 ([2]; Homo sapiens, SK-N-AS, SKNAS, brain): > 50 µM
IC50 ([2]; Homo sapiens, SK-N-SH, SKNSH, brain): > 50 µM
IC50 ([2]; Homo sapiens, SK-OV-3, 72 h, SKOV3, ovary): > 50 µM
IC50 ([2]; Homo sapiens, SNB-75, 72 h, SNB75, brain): > 50 µM
IC50 ([2]; Homo sapiens, SU-DHL10, 72 h, SU-DHL-10, hematological): 3.86 µM
IC50 ([2]; Homo sapiens, SU-DHL-6, 72 h, SU-DHL-6, hematological): 1.3 µM
IC50 ([2]; Homo sapiens, SW-620, 72 h, SW620, colon): > 50 µM
IC50 ([2]; Homo sapiens, TE-671, 72 h, TE671, muscle): > 50 µM
IC50 ([2]; Homo sapiens, THP-1, 72 h, THP-1, hematological): > 50 µM
IC50 ([2]; Homo sapiens, U2OS, bone): > 50 µM
IC50 ([2]; Homo sapiens, U-87 MG, U87MG, brain): > 50 µM
IC50 ([2]; Homo sapiens, UMUC3, 72 h, UMUC3, bladder): > 50 µM
IC50 ([2]; Homo sapiens, UO-31, 72 h, UO31, kidney): > 50 µM
IC50 ([2]; Homo sapiens, WSU-NHL, hematological): 0.87 µM
IC50 ([2]; NCI-H358M, NCIH358M, lung): 0.67 µM
IC50 ([2]; PBMC, hematological): > 50 µM
IC50 ([2]; RD-ES, RDES, bone): > 50 µM
SMILES: C#C[C@]1(CO)O[C@@H](n2cc(F)c(=O)[nH]c2=O)C[C@@H]1O [compound 15]
